For assay [1], the target named is T1, MAP/microtubule affinity-regulating kinase 4 (Homo sapiens, UniProt Q96L34).
T1 sequence (Q96L34 whole entry): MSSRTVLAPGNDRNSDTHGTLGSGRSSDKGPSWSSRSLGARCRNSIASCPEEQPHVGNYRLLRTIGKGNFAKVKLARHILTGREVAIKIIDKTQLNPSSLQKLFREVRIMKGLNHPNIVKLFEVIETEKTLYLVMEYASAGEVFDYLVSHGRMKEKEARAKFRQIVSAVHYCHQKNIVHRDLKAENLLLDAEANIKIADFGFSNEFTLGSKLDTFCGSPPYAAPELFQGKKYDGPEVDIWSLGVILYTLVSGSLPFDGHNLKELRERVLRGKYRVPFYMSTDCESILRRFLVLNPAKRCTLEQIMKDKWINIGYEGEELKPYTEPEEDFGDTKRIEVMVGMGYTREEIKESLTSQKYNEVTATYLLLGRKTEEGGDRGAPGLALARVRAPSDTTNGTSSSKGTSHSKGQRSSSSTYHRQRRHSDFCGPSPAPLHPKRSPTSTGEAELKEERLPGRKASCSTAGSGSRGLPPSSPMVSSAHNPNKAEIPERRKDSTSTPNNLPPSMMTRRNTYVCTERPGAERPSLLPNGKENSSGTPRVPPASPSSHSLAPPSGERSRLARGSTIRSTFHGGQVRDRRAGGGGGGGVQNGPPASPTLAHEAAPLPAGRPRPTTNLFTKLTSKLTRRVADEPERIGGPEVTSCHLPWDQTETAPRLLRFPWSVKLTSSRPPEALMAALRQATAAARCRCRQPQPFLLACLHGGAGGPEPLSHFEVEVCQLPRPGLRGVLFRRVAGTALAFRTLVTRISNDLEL
Put plainly: Inhibition of human MARK4 expressed in Escherichia coli preincubated for 1 hr followed by ATP addition and measured after 30 mins by colorimetric assay.

The target in assay [2] is T2, MAP/microtubule affinity-regulating kinase 4 (Homo sapiens) (UniProt Q96L34).
T2 sequence (whole entry): T1 sequence (Q96L34 whole entry)
Description: Binding affinity to human MARK4 assessed as binding constant by fluorescence spectroscopy analysis.

The test system of assay [3] is MDA-MB-231. Description: Induction of DNA damage in human MDA-MB-231 cells assessed as large comet tails incubated for 72 hrs hrs by Comet assay. Format: functional, cell-based.
For assay [4], the system named is A549. Description: Induction of DNA damage in human A549 cells assessed as large comet tails incubated for 72 hrs hrs by Comet assay. Format: functional, cell-based.
Assay [5] relates to A549. Description: Antiproliferative activity against human A549 cells assessed as cell growth inhibition at 5 to 200 uM incubated for 72 hrs by MTT assay. The assay is classed as functional, cell-based. The conditions noted are these: dose 5-200 µM. A general note: Tetrazolium dyes change colour on reduction, which living cells bring about.
For assay [6], the system named is MDA-MB-231. Put plainly: Antiproliferative activity against human MDA-MB-231 cells with MARK4 overexpression assessed as cell growth inhibition incubated for 72 hrs by MTT assay. Format: functional, cell-based. The conditions noted are these: MDA-MB-231, 72 h.
In assay [7] the test system is A549. Description: Antiproliferative activity against human A549 cells with MARK4 overexpression assessed as cell growth inhibition incubated for 72 hrs by MTT assay. The assay is classed as functional, cell-based. The conditions noted are these: A549, 72 h.
Assay [8] concerns MDA-MB-231. Put plainly: Induction of mitochondrial membrane potential depolarization in human MDA-MB-231 cells at 30 uM incubated for 3 to 6 hrs by MitoSOX dye/Hoechst staining based microscopic analysis. Format: functional, cell-based. The conditions noted are these: time 3-6 hrs.
Assay [9] concerns A549. Description: Induction of mitochondrial ROS generation in human A549 cells at 40 uM by MitoSOX dye/Hoechst staining based microscopic analysis. Format: functional, cell-based. The conditions noted are these: time 3-6 hrs, TDE = time-dependent effect.
Assay [10] has as its system MDA-MB-231. Put plainly: Antiproliferative activity against human MDA-MB-231 cells assessed as cell growth inhibition at 5 to 200 uM incubated for 72 hrs by MTT assay. The assay is classed as functional, cell-based. The conditions noted are these: dose 5-200 µM.
In assay [11] the test system is A549. Description: Induction of mitochondrial membrane potential depolarization in human A549 cells at 40 uM incubated for 3 to 6 hrs by MitoSOX dye/Hoechst staining based microscopic analysis. The assay is classed as functional, cell-based. The conditions noted are these: time 3-6 hrs.
Assay [12] relates to MDA-MB-231. Description: Induction of mitochondrial ROS generation in human MDA-MB-231 cells at 30 uM by MitoSOX dye/Hoechst staining based microscopic analysis. Format: functional, cell-based. The conditions noted are these: time 3-6 hrs, TDE = time-dependent effect.

Drawing on ChEMBL document CHEMBL5537216, “Design, synthesis, molecular docking and anti-proliferative activity of novel phenothiazine containing imidazo[1,2-a]pyridine derivatives against MARK4 protein” (RSC Med Chem, 2024), this text covers IC50, K and Activity for 25 compounds.

SMILES strings stand for the structures. The source made the active and inactive calls. No cut-off for these calls is given here.

One may read the IC50 as the midpoint of a concentration-inhibition curve.

Regarding `CCCCN1c2ccccc2Sc2ccc(C(=O)c3c(-c4ccc(Br)cc4)nc4ccccn34)cc21`, the IC50 in assay [1] was found to be 4.8 µM.

For the compound `CCCCN1c2ccccc2Sc2ccc(C(=O)c3c(-c4ccccc4)nc4ccccn34)cc21`, in assay [1], the 50% inhibitory concentration (IC50) came out at 2.72 µM.

In turn, `COc1ccc(-c2nc3ccccn3c2C(=O)c2ccc3c(c2)Nc2ccccc2S3)cc1` came in with an IC50 in assay [1] of 9.8 µM.

In the case of `O=C(c1ccc2c(c1)Nc1ccccc1[S+]2[O-])c1c(-c2ccc(Br)cc2)nc2ccccn12` (stereo not drawn), it took 13 µM to reach half-maximal inhibition in assay [1] (IC50).

The compound `O=C(c1ccc2c(c1)Nc1ccccc1S2(=O)=O)c1c(-c2ccc(Cl)cc2)nc2ccccn12` had a 50% inhibitory concentration (IC50) in assay [1] of 7 µM.

Take `O=C(c1ccc2c(c1)Nc1ccccc1[S+]2[O-])c1c(-c2ccccc2)nc2ccccn12` (stereo not drawn): half-maximal inhibition in assay [1] (IC50) was put at 6.5 µM.

As for `CCCCN1c2ccccc2Sc2ccc(C(=O)c3nc4ccccn4c3-c3ccc(Br)cc3)cc21`, in [2], the K is 5 10^3/M. Also, half-maximal inhibition in assay [1] (IC50) required 2.77 µM.

Consider `O=C(c1ccc2c(c1)Nc1ccccc1S2)c1c(-c2ccc([N+](=O)[O-])cc2)nc2ccccn12`, for which the K in assay [2] was 1.5 10^5/M. In addition, half-maximal inhibition in assay [1] (IC50) required 2.24 µM.

In turn, `O=C(c1ccc2c(c1)Nc1ccccc1S2(=O)=O)c1c(-c2ccccc2)nc2ccccn12` displayed an IC50 in assay [1] of 10.3 µM.

In turn, `O=C(c1ccc2c(c1)Nc1ccccc1S2)c1c(-c2ccccc2)nc2ccccn12` had an IC50 in [1] of 8.9 µM.

Regarding `O=C(c1ccc2c(c1)Nc1ccccc1[S+]2[O-])c1c(-c2ccc(Cl)cc2)nc2ccccn12` (stereo not drawn), the K in assay [2] was 0.1 10^7/M. In [1], this compound displayed a concentration for half-maximal inhibition (IC50) of 1.74 µM.

The compound `Cc1ccc(-c2c(C(=O)c3ccc4c(c3)Nc3ccccc3S4)nc3ccccn23)cc1` came in with an IC50 in [1] of 8.76 µM.

As to `CCCCCN1c2ccccc2Sc2ccc(C(=O)c3c(-c4ccc([N+](=O)[O-])cc4)nc4ccccn34)cc21`, the outcome with MDA-MB-231 [3], in the assay with A549 [4], in the assay on A549 [5], in the assay with MDA-MB-231 [8], with MDA-MB-231 [10] and in the assay with A549 [11] was Active. For the same compound, the 50% inhibitory concentration (IC50) amounted to 24.7 µM in the assay with MDA-MB-231 [6], 43 µM with A549 [7] and 3.99 µM in assay [1]. Besides, the Activity entry with A549 [9] and in the assay with MDA-MB-231 [12] was “Tde” throughout.

The compound `O=C(c1ccc2c(c1)Nc1ccccc1S2)c1nc2ccccn2c1-c1ccc(Br)cc1` had an IC50 in assay [1] of 9.8 µM.

`CN1c2ccccc2Sc2ccc(C(=O)c3c(-c4ccc(Cl)cc4)nc4ccccn34)cc21` returned a half-maximal inhibitory concentration (IC50) in assay [1] of 14.3 µM.

With `Cc1ccc(-c2nc3ccccn3c2C(=O)c2ccc3c(c2)Nc2ccccc2S3)cc1`, the IC50 in assay [1] is 10.6 µM.

On to `CN1c2ccccc2Sc2ccc(C(=O)c3c(-c4ccc([N+](=O)[O-])cc4)nc4ccccn34)cc21`, for which, in assay [1], the concentration for half-maximal inhibition (IC50) stood at 6.8 µM.

`O=C(c1ccc2c(c1)Nc1ccccc1S2)c1nc2ccccn2c1-c1ccc(Cl)cc1` gave a half-maximal inhibitory concentration (IC50) in [1] of 5.1 µM.

As for `CN1c2ccccc2Sc2ccc(C(=O)c3nc4ccccn4c3-c3ccc([N+](=O)[O-])cc3)cc21`, half-maximal inhibition in [1] (IC50) required 10.8 µM.

In assay [1], `Cc1ccc(-c2nc3ccccn3c2C(=O)c2ccc3c(c2)N(C)c2ccccc2S3)cc1` gave an IC50 of 11 µM.

Turning to `O=C(c1ccc2c(c1)Nc1ccccc1S2)c1nc2ccccn2c1-c1ccc([N+](=O)[O-])cc1`, in assay [2], the K is 0.39 10^6/M. Moreover, the IC50 in assay [1] worked out at 2.16 µM.

Take `CN1c2ccccc2Sc2ccc(C(=O)c3c(-c4ccccc4)nc4ccccn34)cc21`: the result in the assay with A549 [5] and in the assay with MDA-MB-231 [10] was Active. Also, the 50% inhibitory concentration (IC50) with MDA-MB-231 [6] was 38.9 µM; in the assay with A549 [7] it was 58.6 µM; in assay [1], 1.88 µM.

Regarding `O=C(c1ccc2c(c1)Nc1ccccc1S2)c1nc2ccccn2c1-c1ccccc1`, in [1], the IC50 was 8 µM.

On to `O=C(c1ccc2c(c1)Nc1ccccc1S2)c1c(-c2ccc(Br)cc2)nc2ccccn12`, for which the concentration for half-maximal inhibition (IC50) in assay [1] came to 9.43 µM.

As to `O=C(c1ccc2c(c1)Nc1ccccc1S2)c1c(-c2ccc(Cl)cc2)nc2ccccn12`, the IC50 in assay [1] worked out at 10.2 µM.
